Half-life and IC50 data for 25 compounds are collected here from US20240376076A1, “INHIBITORS TARGETING UBIQUITIN SPECIFIC PROTEASE 7 (USP7)” (Dana-Farber Cancer Institute, Inc., priority 2021, published 2024).

Data set [1] is described as follows: mouse liver microsomal stability (Microsome Assay Protocol). As to conditions: pH 7.4; mouse liver microsomes, NADPH, 37° C.; read-out: MLM t1/2, min. The format is in vitro ADME. How it is done:
ND refers to not disclosed.
• 1. Buffer A: 1.0 L of 0.1 M monobasic Potassium Phosphate buffer containing 1.0 mM EDTA Buffer B: 1.0 L of 0.1 M Dibasic Potassium Phosphate buffer containing 1.0 mM EDTA • Buffer C: 0.1 M Potassium Phosphate buffer, 1.0 mM EDTA, pH 7.4 by titrating 700 mL of buffer B with buffer A while monitoring with a pH meter. • 2. Reference compound (Ketanserin) and test compounds spiking solution: • 500 μM spiking solution: added 10 μL of 10 mM DMSO stock solution into 190 μL ACN. • 1.5 μM spiking solution in microsomes (0.75 mg/mL): added 1.5 μL of 500 μM spiking solution and 18.75 μL of 20 mg/mL liver microsomes into 479.75 μL of Buffer C on ice. • 3. Prepared NADPH stock solution (6 mM) by dissolving NADPH into buffer C. Dispensed 30 μL of 1.5 μM spiking solution containing 0.75 mg/mL microsomes solution to the assay plates designated for different time points (0-, 5-, 15-, 30-, 45-min) on ice. For 0-min, added 135 μL of ACN containing IS to the wells of 0-min plate and then added 15 μL of NADPH stock solution (6 mM). Pre-incubated all other plates at 37° C. for 5 minutes. Added 15 μL of NADPH stock solution (6 mM) to the plates to start the reaction and timing. At 5-min, 15-min, 30-min, and 45-min, added 135 μL of ACN containing IS to the wells of corresponding plates, respectively, to stop the reaction. After quenching, shook the plates at the vibrator (IKA, MTS 2/4) for 10 min (600 rpm/min) and then centrifuged at 5594 g for 15 min (Thermo Multifuge×3R). Transferred 50 μL of the supernatant from each well into a 96-well sample plate containing 50 μL of ultra pure water (Millipore, ZMQS50F01) for LC/MS analysis.

For data set [2], the target named is T1, USP7, Active human recombinant protein (Homo sapiens, UniProt Q93009).
T1 construct: purchased CP Lot; 20200225001
As to the kind of experiment: USP7 assay (Ubiquitin-Rhodamine 110 enzymatic assay). Format: biochemical. The note with it: read-out: IC50. The gist of the method: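 Kinetic 20-min fluorescence read (485/535 nm) of ubiquitin-rhodamine 110 (190 nM final) cleavage by 0.05 nM USP7 gave slopes. Compounds, 10 concentrations in 3-fold steps, had 15 min RT preincubation with enzyme first. Inhibition relative to max (enzyme+substrate) and min (substrate only) signals, fitted to IC50.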

T1 sequence (Q93009 whole entry): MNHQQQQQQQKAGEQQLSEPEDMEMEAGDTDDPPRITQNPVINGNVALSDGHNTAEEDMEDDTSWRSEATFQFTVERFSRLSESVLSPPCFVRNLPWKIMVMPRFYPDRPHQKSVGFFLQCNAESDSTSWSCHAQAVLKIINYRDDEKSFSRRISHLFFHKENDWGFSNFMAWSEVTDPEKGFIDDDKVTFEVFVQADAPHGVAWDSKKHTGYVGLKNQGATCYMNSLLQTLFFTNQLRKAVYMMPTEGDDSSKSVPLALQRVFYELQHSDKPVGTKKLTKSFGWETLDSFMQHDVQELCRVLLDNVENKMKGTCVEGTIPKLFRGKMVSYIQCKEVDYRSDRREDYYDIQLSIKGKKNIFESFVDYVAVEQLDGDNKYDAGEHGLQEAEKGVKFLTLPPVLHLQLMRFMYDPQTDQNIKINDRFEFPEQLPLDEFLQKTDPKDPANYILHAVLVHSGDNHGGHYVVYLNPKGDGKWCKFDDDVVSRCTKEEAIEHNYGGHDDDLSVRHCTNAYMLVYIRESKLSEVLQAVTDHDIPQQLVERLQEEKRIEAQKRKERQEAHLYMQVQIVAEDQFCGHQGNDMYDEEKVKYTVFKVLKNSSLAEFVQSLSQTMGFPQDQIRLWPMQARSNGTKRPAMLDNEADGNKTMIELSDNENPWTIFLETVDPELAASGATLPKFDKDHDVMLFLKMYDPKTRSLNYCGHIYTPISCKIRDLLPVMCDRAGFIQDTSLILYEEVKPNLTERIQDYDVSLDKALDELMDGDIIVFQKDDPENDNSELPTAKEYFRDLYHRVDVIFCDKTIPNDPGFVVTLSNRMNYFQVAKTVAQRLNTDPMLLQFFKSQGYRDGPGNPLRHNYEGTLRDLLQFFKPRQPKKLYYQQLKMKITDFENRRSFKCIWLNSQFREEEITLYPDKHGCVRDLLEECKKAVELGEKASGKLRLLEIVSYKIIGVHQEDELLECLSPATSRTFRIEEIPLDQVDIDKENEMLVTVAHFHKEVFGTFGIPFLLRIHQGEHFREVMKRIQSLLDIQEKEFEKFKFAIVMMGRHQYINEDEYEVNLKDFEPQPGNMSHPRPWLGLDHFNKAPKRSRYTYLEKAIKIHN

As for `CC(=O)N1CCc2nc3cc(C(=O)NCCCC(Cc4ccccc4)C(=O)N4CCC(O)(Cn5cnc6cc(NC(=O)CN(C)C)ccc6c5=O)CC4)ccc3c(Cl)c2C1` (centres unmarked) [Compound 33, 2-acetyl-N-(4-benzyl-5-(4-((7-(2-(dimethylamino)acetamido)-4-oxoquinazolin-3(4H)-yl)methyl)-4-hydroxypiperidin-1-yl)-5-oxopentyl)-10-chloro-1,2,3,4-tetrahydrobenzo[b][1,6]naphthyridine-7-carboxamide], in data set [1], the half-life at 1 µM is 2.1 min. Further, the IC50 in data set [2] was under 20 nM.

With `CN(C)CCCOc1ccc2c(=O)n(CC3(O)CCN(C(=O)C(CCNC(=O)c4ccc5c(Cl)c(C(N)=O)cnc5c4)Cc4ccccc4)CC3)cnc2c1` (centres unmarked), in data set [1], the half-life at 1 µM turned out to be 28.2 min. The IC50 in data set [2] was under 20 nM.

Regarding `CC(c1ccccc1)C(CCCNC(=O)c1ccc2c(Cl)cc(C3CC3)nc2c1)C(=O)N1CCC(O)(Cn2cnc3cc(OCCCN(C)C)ccc3c2=O)CC1` (centres unmarked), in data set [1], the half-life at 1 µM is 7.27 min. Moreover, the IC50 in data set [2] lay in the range of 20 to 100 nM.

For the compound `O=C(CCn1ccnc1)Nc1ccc2c(=O)n(CC3(O)CCN(C(=O)C(CCCNC(=O)c4ccc5c(Cl)ccnc5c4)Cc4ccccc4)CC3)cnc2c1` (centres unmarked) [Compound 63, N-(5-(4-((7-(3-(1H-imidazol-1-yl)propanamido)-4-oxoquinazolin-3(4H)-yl)methyl)-4-hydroxypiperidin-1-yl)-4-benzyl-5-oxopentyl)-4-chloroquinoline-7-carboxamide], the half-life at 1 µM in data set [1] stood at 4.16 min. Also, the IC50 in data set [2] was in the range of 100 to 1000 nM.

As to `O=C(CCN1CCOCC1)Nc1ccc2c(=O)n(CC3(O)CCN(C(=O)C(CCCNC(=O)c4ccc5c(Cl)ccnc5c4)Cc4ccccc4)CC3)cnc2c1` (centres unmarked) [Compound 60, N-(4-benzyl-5-(4-hydroxy-4-((7-(3-morpholinopropanamido)-4-oxoquinazolin-3(4H)-yl)methyl)piperidin-1-yl)-5-oxopentyl)-4-chloroquinoline-7-carboxamide], the half-life at 1 µM in data set [1] worked out at 2.71 min. Further, in data set [2], the IC50 was in the range of 20 to 100 nM.

On to `CN(C)CCCOc1ccc2c(=O)n(CC3(O)CCN(C(=O)[C@H](CCCNC(=O)c4ccc5c(Cl)c6c(nc5c4)CCNC6=O)Cc4ccccc4)CC3)cnc2c1`, for which, in data set [1], the half-life at 1 µM turned out to be 10.2 min. Further, the IC50 in data set [2] fell in the range of 100 to 1000 nM.

In the case of `CN(C)CCCOc1ccc2c(=O)n(CC3(O)CCN(C(=O)[C@H](CCCNC(=O)c4ccc5c(Cl)c6c(nc5c4)CC(C)(C)C6)Cc4ccccc4)CC3)cnc2c1` [Compound 121], the half-life at 1 µM in data set [1] is 6 min. The IC50 in data set [2] was under 20 nM.

As for `CN(C)CCCOc1ccc2c(=O)n(CC3(O)CCN(C(=O)[C@@H](CCCNC(=O)c4ccc5c(Cl)c(C(=O)NC6CC6)cnc5c4)Cc4ccccc4)CC3)cnc2c1`, the half-life at 1 µM in data set [1] was found to be 62.4 min. For the same compound, the IC50 in data set [2] is under 20 nM.

Take `CN1CCN(CCC(=O)Nc2ccc3c(=O)n(CC4(O)CCN(C(=O)C(CCCNC(=O)c5ccc6c(Cl)cc(C7(F)CC7)nc6c5)Cc5ccccc5)CC4)cnc3c2)CC1` (centres unmarked) [Compound 21, N-(4-benzyl-5-(4-hydroxy-4-((7-(3-(4-methylpiperazin-1-yl)propanamido)-4-oxoquinazolin-3(4H)-yl)methyl)piperidin-1-yl)-5-oxopentyl)-4-chloro-2-(1-fluorocyclopropyl)quinoline-7-carboxamide]: the half-life at 1 µM in data set [1] is 18.5 min. Besides, the IC50 in data set [2] is over 1000 nM.

Regarding `CC(C)c1cc(Cl)c2ccc(C(=O)NCCC[C@H](Cc3ccccc3)C(=O)N3CCC(O)(Cn4cnc5cc(OCCCN(C)C)ccc5c4=O)CC3)cc2n1` [Compound 120], the half-life at 1 µM in data set [1] was found to be 5.89 min. In addition, in data set [2], the IC50 is under 20 nM.

`Cc1cc(Cl)c2ccc(C(=O)N3CCN(CC(=O)N4CCC(O)(Cn5cnc6cc(Cl)ccc6c5=O)CC4)CC3)cc2n1` [Compound 80]: the half-life at 1 µM in data set [1] amounted to 5.41 min. Further, the IC50 in data set [2] is over 1000 nM.

For the compound `CN(C)CCC(=O)Nc1ccc2c(=O)n(CC3(O)CCN(C(=O)c4cn(CCNC(=O)c5ccc6c(Cl)ccnc6c5)nc4Cc4ccccc4)CC3)cnc2c1` [Compound 52, N-(2-(3-benzyl-4-(4-((7-(3-(dimethylamino)propanamido)-4-oxoquinazolin-3(4H)-yl)methyl)-4-hydroxypiperidine-1-carbonyl)-1H-pyrazol-1-yl)ethyl)-4-chloroquinoline-7-carboxamide], the half-life at 1 µM in data set [1] was determined as 15.1 min. Further, in data set [2], the IC50 fell in the range of 100 to 1000 nM.

On to `Cc1cc(Cl)c2ccc(C(=O)NCCCC(Cc3ccccc3)C(=O)N3CCC(O)(Cn4cnc5cc(NC(=O)CCN(C)C)ccc5c4=O)CC3)cc2n1` (centres unmarked) [Compound 49, N-(4-benzyl-5-(4-((7-(3-(dimethylamino)propanamido)-4-oxoquinazolin-3(4H)-yl)methyl)-4-hydroxypiperidin-1-yl)-5-oxopentyl)-4-chloro-2-methylquinoline-7-carboxamide], for which the half-life at 1 µM in data set [1] is 13.5 min. In addition, in data set [2], the IC50 is under 20 nM.

In the case of `CN(C)CCCOc1ccc2c(=O)n(CC3(O)CCN(C(=O)C(Cc4ccccc4)N(C)CCNC(=O)c4ccc5c(Cl)c(C(=O)NC6CC6)cnc5c4)CC3)cnc2c1` (centres unmarked), in data set [1], the half-life at 1 µM worked out at 46.5 min. The IC50 in data set [2] is 20 to 100 nM.

As to `CN(C)CCCOc1ccc2c(=O)n(CC3(O)CCN(C(=O)C(CCCNC(=O)c4ccc5c(Cl)c(CO)cnc5c4)Cc4ccccc4)CC3)cnc2c1` (centres unmarked), in data set [1], the half-life at 1 µM amounted to 57.6 min. For the same compound, the IC50 in data set [2] was under 20 nM.

On to `CN(C)CCCOc1cc2ncn(CC3(O)CCN(C(=O)[C@@H](CCCNC(=O)c4ccc5c(Cl)cc(C6CC6)nc5c4)Cc4ccccc4)CC3)c(=O)c2cc1F`, for which, in data set [1], the half-life at 1 µM was found to be 22.1 min. Besides, in data set [2], the IC50 was under 20 nM.

On to `CN1CCN(CC(=O)Nc2ccc3c(=O)n(CC4(O)CCN(C(=O)C(CCCNC(=O)c5ccc6c(Cl)ccnc6c5)Cc5ccccc5)CC4)cnc3c2)CC1` (centres unmarked) [Compound 29, N-(4-benzyl-5-(4-hydroxy-4-((7-(2-(4-methylpiperazin-1-yl)acetamido)-4-oxoquinazolin-3(4H)-yl)methyl)piperidin-1-yl)-5-oxopentyl)-4-chloroquinoline-7-carboxamide], for which, in data set [1], the half-life at 1 µM amounted to 16.7 min. The IC50 in data set [2] was 20 to 100 nM.

Consider `CNc1cc(Cl)c2ccc(C(=O)NCCCC(Cc3ccccc3)C(=O)N3CCC(O)(Cn4cnc5cc(NC(=O)CCN(C)C)ccc5c4=O)CC3)cc2n1` (centres unmarked) [Compound 69], for which the half-life at 1 µM in data set [1] turned out to be 4.5 min. Further, the IC50 in data set [2] was over 1000 nM.

For `CN(C)CCC(=O)Nc1ccc2c(=O)n(CC3(O)CCN(C(=O)C(CCCNC(=O)c4ccc5c(Cl)c6c(nc5c4)CN(C)CC6)Cc4ccccc4)CC3)cnc2c1` (centres unmarked) [Compound 40, N-(4-benzyl-5-(4-((7-(3-(dimethylamino)propanamido)-4-oxoquinazolin-3(4H)-yl)methyl)-4-hydroxypiperidin-1-yl)-5-oxopentyl)-5-chloro-2-methyl-1,2,3,4-tetrahydrobenzo[b][1,7]naphthyridine-8-carboxamide], the half-life at 1 µM in data set [1] worked out at 7.4 min. Also, the IC50 in data set [2] is 20 to 100 nM.

With `CN1CCN(CCn2cc3ncn(CC4(O)CCN(C(=O)C(CCCNC(=O)c5ccc6c(Cl)ccnc6c5)Cc5ccccc5)CC4)c(=O)c3n2)CC1` (centres unmarked) [Compound 27], the half-life at 1 µM in data set [1] came to 20 min. Also, the IC50 in data set [2] is over 1000 nM.

Consider `CN1CCN(CCC(=O)Nc2ccc3c(=O)n(CC4(O)CCN(C(=O)C(CCCNC(=O)c5ccc6c(Cl)cc(-c7cnn(CC(F)(F)F)c7)nc6c5)Cc5ccccc5)CC4)cnc3c2)CC1` (centres unmarked) [Compound 18, N-(4-benzyl-5-(4-hydroxy-4-((7-(3-(4-methylpiperazin-1-yl)propanamido)-4-oxoquinazolin-3(4H)-yl)methyl)piperidin-1-yl)-5-oxopentyl)-4-chloro-2-(1-(2,2,2-trifluoroethyl)-1H-pyrazol-4-yl)quinoline-7-carboxamide], for which the half-life at 1 µM in data set [1] was 21.2 min. Also, the IC50 in data set [2] fell in the range of 20 to 100 nM.

Consider `O=C(CN1CCN(C(=O)c2ccc3c(Cl)c4c(nc3c2)CCCC4)CC1)N1CCC(O)(Cn2cnc3cc(Cl)ccc3c2=O)CC1`, for which the half-life at 1 µM in data set [1] stood at 2.31 min. In data set [2], the IC50 was over 1000 nM.

Turning to `CNc1cc(Cl)nc2cc(C(=O)NCCCC(Cc3ccccc3)C(=O)N3CCC(O)(Cn4cnc5cc(NC(=O)CCN(C)C)ccc5c4=O)CC3)ccc12` (centres unmarked) [Compound 70], in data set [1], the half-life at 1 µM was 10.3 min. Also, the IC50 in data set [2] was 20 to 100 nM.

Turning to `NC(=O)c1cnc2cc(C(=O)NCCCC(Cn3ccc(F)n3)C(=O)N3CCC(O)(Cn4cnc5ccccc5c4=O)CC3)ccc2c1Cl` (centres unmarked), the half-life at 1 µM in data set [1] is 6.51 min. The IC50 in data set [2] is 20 to 100 nM.

For `CN(C)CCC(=O)Nc1ccc2c(=O)n(CC3(O)CCN(C(=O)C4CN(CCNC(=O)c5ccc6c(Cl)ccnc6c5)CC4Cc4ccccc4)CC3)cnc2c1` (centres unmarked) [Compound 54], the half-life at 1 µM in data set [1] amounted to 36.5 min. For the same compound, the IC50 in data set [2] was in the range of 20 to 100 nM.
